For data set [1], the system named is Trypanosoma cruzi. In words: Trypanocidal activity against epimastigote stage of Trypanosoma cruzi Dm28c assessed as induction of vacuolization at 5 ug/ml after 48 hrs by lead citrate staining based microscopy. The class given is functional, organism-based.
For data set [2], the system named is Trypanosoma cruzi. Put plainly: Antitrypanosomal activity against epimastigote stage of Trypanosoma cruzi Dm28c assessed as parasite viability at 10 ug/ml after 24 hrs by eosin exclusion based hemocytometry. It counts as functional.
Data set [3] in a line: Cytotoxicity against african green monkey Vero cells assessed as cell viability at 10 ug/ml after 24 hrs by eosin staining based microscopy. Conditions: chlorocebus sabaeus, read-out: Activity.
For data set [4], the system named is Trypanosoma cruzi. Put plainly: Antitrypanosomal activity against epimastigote stage of Trypanosoma cruzi Dm28c assessed as parasite viability at 2 ug/ml after 24 hrs by eosin exclusion based hemocytometry. The class given is functional.
The subject of data set [5] is Trypanosoma cruzi. In words: Antitrypanosomal activity against epimastigote stage of Trypanosoma cruzi Dm28c assessed as parasite viability at 5 ug/ml after 24 hrs by eosin exclusion based hemocytometry. It counts as functional.
Data set [6] has as its system Trypanosoma cruzi. In words: Antitrypanosomal activity against epimastigote stage of Trypanosoma cruzi Dm28c assessed as parasite viability at 1 ug/ml after 24 hrs by eosin exclusion based hemocytometry. It counts as functional.
The subject of data set [7] is Trypanosoma cruzi. In words: Antitrypanosomal activity against epimastigote stage of Trypanosoma cruzi Dm28c assessed as reduction in parasite viability at after 24 hrs by eosin exclusion based hemocytometry. The class given is functional, organism-based.
Data set [8] can be described thus: Cytotoxicity against african green monkey Vero cells assessed as cell viability at 2 ug/ml after 24 hrs by eosin staining based microscopy. Conditions: chlorocebus sabaeus, read-out: Activity.
Data set [9] is described as follows: Cytotoxicity against african green monkey Vero cells assessed as cell viability at 5 ug/ml after 24 hrs by eosin staining based microscopy. Conditions: chlorocebus sabaeus, read-out: Activity.
Data set [10] in a line: Cytotoxicity against african green monkey Vero cells assessed as cell viability at 1 ug/ml after 24 hrs by eosin staining based microscopy. As to conditions: chlorocebus sabaeus, read-out: Activity.

The results in this text go back to ChEMBL document CHEMBL3734726, “An abietane diterpene from Salvia cuspidata and some new derivatives are active against Trypanosoma cruzi” (Bioorg Med Chem Lett, 2015).

The structures appear in SMILES notation. ≈ marks a conversion by molar mass, not a printed value. Calls of active or inactive are those of the source. The calls are words filed in the database; no cut-off is given here.

The IC50 is the point on the concentration scale where inhibition reaches its midpoint. Take `CC(C)C1=C(O)C(=O)C2=C(C=C[C@@H]3[C@]24CCC[C@]3(C)C(=O)OC4)C1=O`: the result in the data set with Trypanosoma cruzi [1] was Active. For the same compound, the Parasite viability with Trypanosoma cruzi [2] worked out at 16.3%; with Trypanosoma cruzi [4] it was 76.4%; in the data set with Trypanosoma cruzi [5], 49.7%; in the data set on Trypanosoma cruzi [6] it was 99.2%. The viability at 24 h, 10 ug/ml in data set [3] came to 88.4%. Also, the IC50 in the data set on Trypanosoma cruzi [7] was found to be 5 µg/mL (≈ 14.6 µM). In addition, the viability at 24 h, 2 ug/ml in [8] is 99.5%. Besides, the viability at 24 h, 5 ug/ml in data set [9] was found to be 98.8%. Also, the viability at 24 h, 1 ug/ml in data set [10] came out at 99.2%.

For `CC(C)C1=C(O[Si](C)(C)C)C(=O)C2=C(C=C[C@@H]3[C@]24CCC[C@]3(C)C(=O)OC4)C1=O`, the Parasite viability in the data set with Trypanosoma cruzi [2] was found to be 15.3%; with Trypanosoma cruzi [4], 49.5%; in the data set on Trypanosoma cruzi [5], 29.5%; in the data set on Trypanosoma cruzi [6], 85.5%. Also, the viability at 24 h, 10 ug/ml in data set [3] was 83.6%. For the same compound, the IC50 with Trypanosoma cruzi [7] came out at 2 µg/mL (≈ 4.82 µM). Besides, the viability at 24 h, 2 ug/ml in data set [8] is 99.6%. For the same compound, the viability at 24 h, 5 ug/ml in [9] was found to be 99.1%. For the same compound, the viability at 24 h, 1 ug/ml in data set [10] amounted to 99.7%.

As for `C=CCOC1=C(C(C)C)C(=O)C2=C(C1=O)[C@]13CCC[C@](C)(C(=O)OC1)[C@@H]3C=C2`, the Parasite viability with Trypanosoma cruzi [2] turned out to be 18.3%; in the data set on Trypanosoma cruzi [4], 65.5%; with Trypanosoma cruzi [5], 29.5%; in the data set on Trypanosoma cruzi [6], 85.5%. Further, the viability at 24 h, 10 ug/ml in data set [3] worked out at 85.5%. Moreover, the viability at 24 h, 2 ug/ml in [8] was found to be 99.6%. In [9], the viability at 24 h, 5 ug/ml turned out to be 99.1%. Further, the viability at 24 h, 1 ug/ml in data set [10] is 99.8%.

Turning to `CC(=O)OC1=C(C(C)C)C(=O)C2=C(C1=O)[C@]13CCC[C@](C)(C(=O)OC1)[C@@H]3C=C2`, the Parasite viability in the data set on Trypanosoma cruzi [2] is reported as 16.3%; in the data set on Trypanosoma cruzi [4], 89.5%; in the data set on Trypanosoma cruzi [5] it was 39.5%; with Trypanosoma cruzi [6] it was 99.2%. Besides, the viability at 24 h, 10 ug/ml in data set [3] is 92.4%. The viability at 24 h, 2 ug/ml in [8] came to 99.7%. In [9], the viability at 24 h, 5 ug/ml came out at 99.2%. Moreover, in [10], the viability at 24 h, 1 ug/ml was 99.8%.
